# Reference: the Kinase Knowledgebase extract (Sharma et al. 2016)
# Target: CDK2 (UniProt P24941)
# Assay: Enzyme Assay
row,SMILES,IC50 [nM]
1,COc1ccc(CNc2nc(NCC(CO)CCO)nc3c2ncn3C(C)C)cc1 (stereo not given),> 5000
2,CC(C)n1cnc2c(NCc3ccc(-c4ccccc4)cc3)nc(N(C)c3ccco3)nc21,> 5000
3,CC(C)n1cnc2c(NCc3ccc(-c4ccccc4)cc3)nc(NCCO)nc21,3000
4,CNc1ccccc1C1CCCN1c1nc(NCc2ccc(OC)cc2)c2ncn(C(C)C)c2n1 (stereo not given),> 5000
5,COC(=O)c1ccc(CNc2nc(Cl)nc3[nH]cnc23)cc1,> 5000
6,CC(C)n1cnc2c(NCC3CC3)nc(N(CCO)CCO)nc21,2000
7,CC(C)Cn1cnc2c(NCc3cccnc3)nc(Cl)nc21,> 5000
8,Clc1nc(NCc2ccncc2)c2ncn(C3CCCC3)c2n1,> 5000
9,CC(C)n1cnc2c(NCCCc3ccccc3)nc(N(CCO)CCO)nc21,5000

# Continued by falling IC50, values first:
row,IC50 [nM],SMILES
1,2000,COc1ccc(CNc2nc(NCC(O)c3c[nH]c4ccccc34)nc3c2ncn3C(C)C)cc1 (stereo not given)
2,1000,COc1ccc(CNc2nc(N)nc3c2ncn3C(C)C)cc1
3,1000,COc1ccc(CNc2nc(NCc3cccnc3)nc3c2ncn3C(C)C)cc1
4,1000,COc1ccc(CNc2nc(NCCCC#N)nc3c2ncn3C(C)C)cc1
5,1000,COc1ccc(CNc2nc(NCC(O)CN)nc3c2ncn3C(C)C)cc1 (stereo not given)
6,600,CC(C)n1cnc2c(NCc3ccc(C4C=CC=CC4=S)cc3)nc(N(CCO)CCO)nc21 (stereo not given)
